Measured values published in US10034886B2, “GLP-1 receptor modulators” (Celgene International II SÀRL, priority 2014, dated 2018).
pEC50: −log10 of the molar value.

target: T1, GLP-1R (Homo sapiens, UniProt P43220); experiment: EC20 GLP-1(9-36) PAM cAMP assay: dose response of compound in the presence of fixed concentration of GLP-1(9-36); format: cell-based; details: GLP-1R CRE-bla CHO-K1 cells, compound dose response with fixed concentration of GLP-1(9-36), read-out: EC20 GLP-1(9-36) PAM EC50
T1 construct: host or cells: GLP-1R CRE-bla CHO-K1 cells
Procedure: EC20 GLP-1(9-36) PAM cAMP Assay: Dose Response of Compound in the Presence of Fixed Concentration of GLP-1 (9-36).
GLP-1R CRE-bla CHO-K1 cells cultured in growth medium (DMEM-High glucose, 10% dialyzed FBS, 0.1 mM NEAA, 25 mM Hepes, 100 U/mL penicillin/100 μg/mL streptomycin, 5 μg/mL Blasticidin, 600 μg/mL Hygromycin) were trypsinized and plated in suspension into 384 well white flat bottom plates at 5000 cells/well in 12 μL assay buffer (Hanks Balanced Salt solution, 10 mM hepes, 0.1% BSA, pH 7.4). A 5× compound dose response curve (12-point) was generated in assay buffer containing 1.5 mM IBMX, 4% DMSO. GLP-1(9-36) was diluted to 4.2 μM in assay buffer containing 1.5 mM IMBX and 4% DMSO. The 5× compound dose response was added (3 μL), followed by 0.5 μL of GLP-1(9-36) and cells were incubated for 30 min at 37° C. Direct detection of cAMP was carried out using DiscoveRx HitHunter cAMP kit according to manufacturer's instructions and luminescence was read using a SpectraMax M5 plate reader. Luminescence was converted to total cAMP using a cAMP standard curve and data was analyzed by non-linear regression to determine the EC50 and Emax.
GLP-1(7-36): […]-NH2 (SEQ ID NO: 2). GLP-1(9-36): […]-NH2 (SEQ ID NO: 3). GLP-1(7-36) was purchased from GenScript. GLP-1(9-36) was purchased from Biopeptide Co., Inc.
The EC20GLP-1(9-36) PAM Activity range is denoted as follows: + denotes activity <0.8 μM, ++ denotes activity between 0.8 and 2.5 μM, +++ denotes activity between 2.5 and 5 μM, and ++++ denotes activity 5 to 10 μM.

T1 sequence (P43220 24-463): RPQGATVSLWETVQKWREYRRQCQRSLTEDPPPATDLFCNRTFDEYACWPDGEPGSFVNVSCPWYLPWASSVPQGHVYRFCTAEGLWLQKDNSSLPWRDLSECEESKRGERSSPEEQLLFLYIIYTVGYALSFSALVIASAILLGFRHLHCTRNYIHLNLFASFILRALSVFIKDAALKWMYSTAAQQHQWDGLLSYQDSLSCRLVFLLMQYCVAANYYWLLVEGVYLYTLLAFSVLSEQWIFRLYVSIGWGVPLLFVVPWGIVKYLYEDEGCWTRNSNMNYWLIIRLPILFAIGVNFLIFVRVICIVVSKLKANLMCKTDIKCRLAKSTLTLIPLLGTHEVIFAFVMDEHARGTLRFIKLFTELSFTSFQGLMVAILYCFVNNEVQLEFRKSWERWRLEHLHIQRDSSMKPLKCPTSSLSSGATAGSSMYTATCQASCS
T1 sequence (P01275 100-127 partner limits assumed): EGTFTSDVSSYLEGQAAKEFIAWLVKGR

pEC50	Structure (SMILES)
> 6.10	CCCc1ccc(N2CCN(c3cnc(-c4ccc(C[C@H](NC(=O)c5ccc(C(C)(C)C)s5)C(=O)N5CC(C(=O)O)C5)cc4)nc3)CC2)cc1 [Compound 1511]
5.60 to 6.10	CC[C@H]1CC[C@H](c2ccc(-c3cnc(-c4ccc(C[C@@H](NC(=O)c5ccc(C(C)(C)C)s5)C(=O)O)cc4)nc3)cc2)CC1 [Compound 1392]
5.30 to 5.60	CCCOc1ccc(-c2ccc(-c3cnc(-c4ccc(C[C@H](NC(=O)c5ccc(C(C)(C)C)s5)C(=O)O)cc4)nc3)c(F)c2)cc1 [Compound 1360]
5.60 to 6.10	CC[C@H]1CC[C@H](c2ccc(-c3cnc(-c4ccc(C[C@@H](NC(=O)c5ccc(C(C)(C)C)s5)C(=O)N[C@@H](C)C(=O)O)cc4)nc3)cc2)CC1 [Compound 1270]
5.00 to 5.30	CCCC1CCC(N2CC=C(c3cnc(-c4ccc(C[C@H](NC(=O)c5ccc(C(C)(C)C)s5)C(=O)N5CC(C(=O)O)C5)cc4)nc3)CC2)CC1 (some centres unmarked) [Compound 1434]
5.30 to 5.60	CCCCCCCOc1ccc(-c2cnc(-c3ccc(C[C@H](NC(=O)c4ccc(C(C)(C)C)s4)C(=O)N[C@H]4C[C@H](N)C4)cc3)nc2)cc1 [Compound 1281]
> 6.10	CCC[C@H]1CC[C@H](C2CCN(c3cnc(-c4ccc(C[C@H](NC(=O)c5ccc(C(C)(C)C)s5)C(=O)N[C@H](CN)C(=O)O)cc4)nc3)CC2)CC1 [Compound 1473]
> 6.10	CCC[C@H]1CC[C@H](c2ccc(-c3cnc(-c4ccc(C[C@H](NC(=O)c5ccc(C(C)(C)C)s5)C(=O)N5CC(C(=O)O)C5)cc4)nc3)cc2)CC1 [Compound 1343, 1-((S)-2-(5-(tert-butyl)thiophene-2-carboxamido)-3-(4-(5-(4-((1s,4r)-4-propylcyclohexyl)phenyl)pyrimidin-2-yl)phenyl)propanoyl)azetidine-3-carboxylic acid]
5.60 to 6.10	CCCc1ccc(N2CCN(c3cnc(-c4ccc(CC(NC(=O)c5ccc(C(C)(C)C)s5)C(=O)N5CC(C(=O)O)C5)cc4)nc3)C(=O)C2)cc1 (racemic) [Compound 1411]
> 6.10	C[C@@H](NC(=O)[C@H](Cc1ccc(-c2ncc(-c3ccc(-c4ccc(F)cc4)cc3)cn2)cc1)NC(=O)c1ccc(C(C)(C)C)s1)C(=O)O [Compound 1305]
5.60 to 6.10	C[C@@H](NC(=O)[C@H](Cc1ccc(-c2ncc(/C=C/c3ccccc3C(F)(F)F)cn2)cc1)NC(=O)c1ccc(C(C)(C)C)s1)C(=O)O [Compound 1260]
5.00 to 5.30	CC(C)(C)c1ccc(C(=O)N[C@@H](Cc2ccc(-c3ncc(-c4ccc(OCCN5CCCCC5)cc4)cn3)cc2)C(=O)O)s1 [Compound 1353]
5.60 to 6.10	CCC[C@H]1CC[C@H](N2CCN(c3cnc(-c4ccc(C[C@H](NC(=O)c5ccc(C(C)(C)C)s5)C(=O)N5CC(C(=O)O)C5)cc4)nc3)CC2)CC1 [Compound 1435]
5.00 to 5.30	CC[C@H]1CC[C@H](c2ccc(-c3cnc(-c4ccc(C[C@H](NC(=O)c5ccc(C)s5)C(=O)O)cc4)nc3)cc2)CC1 [Compound 1385]
> 6.10	CC[C@H]1CC[C@H](c2ccc(-c3cnc(-c4ccc(C[C@H](NC(=O)c5ccc(C(C)(C)C#N)s5)C(=O)O)cc4)nc3)cc2)CC1 [Compound 1373]
5.60 to 6.10	CCc1ccc(C(=O)N[C@@H](Cc2ccc(-c3ncc(-c4ccc(OCCCC(C)C)cc4)cn3)cc2)C(=O)N2CC(C(=O)O)C2)s1 [Compound 1241]
> 6.10	CCC[C@H]1CC[C@H](C2CCN(c3cnc(-c4ccc(C[C@H](NC(=O)c5ccc(C(C)C)cc5)C(=O)N5CC(C(=O)O)C5)cc4)nc3)CC2)CC1 [Compound 1536]

same assay, conditions: dose response of compound in presence of fixed concentration of GLP-1(9-36), GLP-1R CRE-bla CHO-K1 cells, read-out: EC20 GLP-1(9-36) PAM EC50

pEC50	Structure (SMILES)
5.60 to 6.10	CCCCCCCOc1ccc(-c2cnc(-c3ccc(C[C@H](NC(=O)c4ccc(CCC)cc4)C(=O)N4CCC[C@H]4C(=O)O)cc3)nc2)cc1 [Compound 1073]
> 6.10	CCCc1ccc(C(=O)N[C@@H](Cc2ccc(-c3ncc(-c4ccc([C@H]5CC[C@H](CC)CC5)cc4)cn3)cc2)C(=O)N2CC(C(=O)O)C2)cc1 [Compound 1156]
> 6.10	CCCCCCCOc1ccc(-c2cnc(-c3ccc(C[C@H](NC(=O)c4ccc(C(C)(C)C)s4)C(=O)N4CC(OC)(C(=O)O)C4)cc3)nc2)cc1 [Compound 873]
> 6.10	CCCCCCCOc1ccc(-c2cnc(-c3ccc(C[C@H](NC(=O)c4ccc(C(C)(C)C)cc4)C(=O)N4C[C@@H](O)C[C@H]4C(=O)O)cc3)nc2)cc1 [Compound 587]
5.30 to 5.60	COc1ccc(-c2cnc(-c3ccc(C[C@H](NC(=O)c4ccc(C(C)(C)C)s4)C(=O)N[C@H](C)C(=O)O)cc3)nc2)cc1 [Compound 730]
5.30 to 5.60	CCCCCCCOc1ccc(-c2cnc(-c3ccc(C[C@H](NC(=O)c4ccc(C(F)(F)F)s4)C(=O)NC(C(=O)O)C(O)c4ccccc4)cc3)nc2)cc1 (some centres unmarked) [Compound 948]
> 6.10	CCCCCCCOc1ccc(-c2cnc(-c3ccc(C[C@H](NC(=O)c4ccc(C(C)(C)C)s4)C(=O)NC(C(=O)O)c4ccco4)cc3)nc2)cc1 (some centres unmarked) [Compound 412]
5.60 to 6.10	CCCCCCCOc1ccc(-c2cnc(-c3ccc(C[C@H](NC(=O)c4ccc(C(C)(C)CC)cc4)C(=O)N4CC(C(=O)O)C4)cc3)nc2)cc1 [Compound 1121]
5.60 to 6.10	CC(C)CCCOc1ccc(-c2cnc(-c3ccc(C[C@H](NC(=O)c4ccc(C(C)(C)C)s4)C(=O)N4CC[C@H](C(=O)O)C4)cc3)nc2)cc1 [Compound 773]
> 6.10	CCCCCCCOc1ccc(-c2cnc(-c3ccc(C[C@H](NC(=O)c4ccc(C(C)(C)C)s4)C(=O)N4CCC[C@H]4C(=O)NCCC(=O)O)cc3)nc2)cc1 [Compound 494]
5.30 to 5.60	CCOc1ccc2cc(-c3cnc(-c4ccc(C[C@H](NC(=O)c5ccc(C(C)(C)C)s5)C(=O)N[C@H](C)C(=O)O)cc4)nc3)ccc2c1 [Compound 992]
5.60 to 6.10	CC(C)(C)c1ccc(-c2cnc(-c3ccc(C[C@H](NC(=O)c4ccc(C(C)(C)C)s4)C(=O)N[C@H]4CCC[C@H]4C(=O)O)cc3)nc2)cc1 [Compound 382]
5.30 to 5.60	C[C@@H](NC(=O)[C@H](Cc1ccc(-c2ncc(-c3ccc(OCc4ccccc4)c(Cl)c3)cn2)cc1)NC(=O)c1ccc(C(C)(C)C)s1)C(=O)O [Compound 1001]
5.60 to 6.10	CCCCCCCOc1ccc(-c2cnc(-c3ccc(CC(NC(=O)c4ccc(C(C)(C)C)s4)C(=O)N[C@@H](Cc4ccc(O)cc4)C(=O)O)cc3)nc2)cc1 (some centres unmarked) [Compound 428]
5.30 to 5.60	CCCCCCCOc1ccc2cc(-c3ccc(C[C@H](NC(=O)c4ccc(C(C)(C)C)cc4)C(=O)N[C@H](C)C(=O)O)cc3)ncc2c1 [Compound 808]
5.60 to 6.10	CCCCCC(=O)c1ccc(-c2cnc(-c3ccc(C[C@H](NC(=O)c4ccc(C(C)(C)C)cc4)C(=O)N[C@H](C)C(=O)O)cc3)nc2)cc1 [Compound 725]
5.30 to 5.60	CC(C)(C)c1ccc(C(=O)N[C@@H](Cc2ccc(-c3ncc(-c4nc(CCc5ccccc5)no4)cn3)cc2)C(=O)NCCC(=O)O)cc1 [Compound 746]
5.60 to 6.10	CCCCCCCOc1ccc(-c2cnc(-c3ccc(C[C@H](NC(=O)c4cnc(C(C)(C)C)nc4)C(=O)N4CC(C(=O)O)C4)cc3)nc2)cc1 [Compound 1118]
5.30 to 5.60	CC(C)(C)c1ccc(C(=O)N[C@@H](Cc2ccc(-c3ncc(-c4ccc(OC(F)=C(F)F)cc4)cn3)cc2)C(=O)NCCC(=O)O)cc1 [Compound 691]
5.60 to 6.10	CCCCCCCOc1ccc(-c2cnc(-c3ccc(C[C@H](NC(=O)c4ccc(C(C)(C)C)s4)C(=O)NC(C(=O)O)C(O)c4ccc(C)cc4)cc3)nc2)cc1 (some centres unmarked) [Compound 900]
5.60 to 6.10	CCCCCCCOc1ccc(-c2cnc(-c3ccc(C[C@@H](NC(=O)c4ccc(C(C)(C)C)cc4)C(=O)O)cc3)nc2)cc1 [Compound 191, (R)-2-(4-(tert-butyl)benzamido)-3-(4-(5-(4-(heptyloxy)phenyl)pyrimidin-2-yl)phenyl)propanoic acid]
5.30 to 5.60	CCCCCCCOc1ccc(-c2cnc(-c3ccc(C[C@H](NC(=O)c4ccc(C5CC5)s4)C(=O)NC(C(=O)O)C(O)c4ccccc4)cc3)nc2)cc1 (some centres unmarked) [Compound 956]
5.60 to 6.10	CCCCCCCOc1ccc(-c2cnc(-c3ccc(C[C@H](NC(=O)c4ccc(C(C)(C)C)cc4)C(=O)NC(CC(=O)O)c4ccccc4O)cc3)nc2)cc1 (some centres unmarked) [Compound 581]
5.00 to 5.30	CCCCCCCOc1ccc2nc(-c3ccc(C[C@H](NC(=O)c4ccc(C(C)(C)C)cc4)C(=O)N4CC[C@H](C(=O)O)C4)cc3)ncc2c1 [Compound 810]
5.60 to 6.10	CCCCN(Cc1ccc(OC)cc1)S(=O)(=O)c1ccc(-c2cnc(-c3ccc(C[C@H](NC(=O)c4ccc(C(C)(C)C)s4)C(=O)N[C@H](C)C(=O)O)cc3)nc2)cc1 [Compound 1037]
5.60 to 6.10	CCCCCOc1ccc(-c2cnc(-c3ccc(C[C@H](NC(=O)c4ccc(C(C)(C)C)s4)C(=O)N[C@H](C)C(=O)O)cc3)nc2)cc1 [Compound 734]
5.60 to 6.10	CCCCCCCOc1ccc(-c2cnc(-c3ccc(C[C@H](NC(=O)c4ccc(C(C)(C)C)s4)C(=O)NS(=O)(=O)CCOC)cc3)nc2)cc1 [Compound 435]
